From US12162893B2 (Erasca, Inc., priority 2020, dated 2024)

Each molecule was assayed against T1, mutant G12C K-RAS (Homo sapiens, UniProt P01116, G12C) (assay: covalent adduct formation (CAF) with mutant G12C K-RAS). Conditions: Table 2, Pyrimidone Core-Morpholine Substituted; after 60 minutes at 10 micromolar.
T1 construct: made in house; host or cells: E. coli BL21
Format: binding
Procedure: Embodiments disclosed herein are further illustrated by the following examples in Tables 1-4 and the Examples hereinbelow. The Tables indicate the compound number, structure, the observed mass spectral molecular weight peak, and covalent adduct formation (CAF) with a mutant G12C K-RAS after 60 minutes at a concentration of 10 micromolar.

Row | % CAF (60 min) [%] | SMILES
1 | 0 | C=CC(=O)N1CCN(c2nc(=O)n3c4c(c(-c5c(O)cccc5F)c(Cl)cc24)OC[C@@H]3CO)[C@@H](C)C1 (single isomer, unassigned) [Example 24]

Same assay, conditions: Table 6; 10 μM, 1 h

Row | SMILES | % CAF @ 10 μM,1 h [%]
2 | C=CC(=O)N1C[C@H](C)N(c2nc(=O)n3c4c(c(-c5c(O)cccc5F)c(Cl)cc24)OC[C@@H]3Cn2ccnc2)C[C@H]1C (atropisomer, axis not shown) [Example 248, (3S)-3-((1H-imidazol-1-yl)methyl)-7-((2S,5R)-4-acryloyl-2,5-dimethylpiperazin-1-yl)-9-chloro-10-(2-fluoro-6-hydroxyphenyl)-2H-[1,4]oxazino[2,3,4-ij]quinazolin-5(3H)-one] | 2.3
3 | C=CC(=O)N1C[C@H](C)N(c2nc(=O)n3c4c(c(-c5c(O)cccc5F)c(Cl)cc24)OC[C@@H]3CCCN2CCOCC2)C[C@H]1C (atropisomer, axis not shown) [Example 265, (3S,10S)-7-((2S,5R)-4-acryloyl-2,5-dimethylpiperazin-1-yl)-9-chloro-10-(2-fluoro-6-hydroxyphenyl)-3-(3-morpholinopropyl)-2,3-dihydro-5H-[1,4]oxazino[2,3,4-ij]quinazolin-5-one] | 97.5
4 | C=CC(=O)N1C[C@H](C)N(c2nc(=O)n3c4c(c(-c5cccc6ccccc56)c(Cl)cc24)OC[C@H]3Cn2cccn2)C[C@H]1C (atropisomer, axis not shown) [Example 292, (3R,10S)-3-((1H-pyrazol-1-yl)methyl)-7-((2S,5R)-4-acryloyl-2,5-dimethylpiperazin-1-yl)-9-chloro-10-(naphthalen-1-yl)-2,3-dihydro-5H-[1,4]oxazino[2,3,4-ij]quinazolin-5-one] | 95
5 | C=CC(=O)N1C[C@H](C)N(c2nc(=O)n3c4c(c(-c5cccc6ccccc56)c(Cl)cc24)OC[C@H]3CN2CCN(C)CC2)C[C@H]1C (atropisomer, axis not shown) [Example 294, (3R,10R)-7-((2S,5R)-4-acryloyl-2,5-dimethylpiperazin-1-yl)-9-chloro-3-((4-methylpiperazin-1-yl)methyl)-10-(naphthalen-1-yl)-2H-[1,4]oxazino[2,3,4-ij]quinazolin-5(3H)-one] | 75.2
6 | C=CC(=O)N1C[C@H](C)N(c2nc(=O)n3c4c(c(-c5cccc6ccccc56)c(Cl)cc24)OC[C@H]3CN2CCN(C)CC2)C[C@H]1C (atropisomer, axis not shown) [Example 295, (3R,10R)-7-((2S,5R)-4-acryloyl-2,5-dimethylpiperazin-1-yl)-9-chloro-3-((4-methylpiperazin-1-yl)methyl)-10-(naphthalen-1-yl)-2H-[1,4]oxazino[2,3,4-ij]quinazolin-5(3H)-one] | 58.4
7 | C=CC(=O)N1C[C@H](C)N(c2nc(=O)n3c4c(c(-c5c(O)cccc5F)c(Cl)cc24)OC[C@H]3CN2CCN(C)CC2)C[C@H]1C (atropisomer, axis not shown) [Example 300, (3R,10R)-7-((2S,5R)-4-acryloyl-2,5-dimethylpiperazin-1-yl)-9-chloro-10-(2-fluoro-6-hydroxyphenyl)-3-((4-methylpiperazin-1-yl)methyl)-2,3-dihydro-5H-[1,4]oxazino[2,3,4-ij]quinazolin-5-one] | 0
8 | C=CC(=O)N1C[C@H](C)N(c2nc(=O)n3c4c(c(-c5c(O)cccc5F)c(Cl)cc24)OC[C@H]3CN2CCN(C)CC2)C[C@H]1C (atropisomer, axis not shown) [Example 301, (3R,10S)-7-((2S,5R)-4-acryloyl-2,5-dimethylpiperazin-1-yl)-9-chloro-10-(2-fluoro-6-hydroxyphenyl)-3-((4-methylpiperazin-1-yl)methyl)-2,3-dihydro-5H-[1,4]oxazino[2,3,4-ij]quinazolin-5-one] | 52.1

Results, then the molecule that gave them:

Row | % CAF @ 10 μM,1 h [%] | SMILES
9 | 0 | C=CC(=O)N1C[C@H](C)N(c2nc(=O)n3c4c(c(-c5c(O)cccc5F)c(Cl)cc24)OC[C@@H]3CN2CCN(C)CC2)C[C@H]1C (atropisomer, axis not shown) [Example 305, (3S,10R)-7-((2S,5R)-4-acryloyl-2,5-dimethylpiperazin-1-yl)-9-chloro-10-(2-fluoro-6-hydroxyphenyl)-3-((4-methylpiperazin-1-yl)methyl)-2,3-dihydro-5H-[1,4]oxazino[2,3,4-ij]quinazolin-5-one]
10 | 73.5 | C=CC(=O)N1C[C@H](C)N(c2nc(=O)n3c4c(c(-c5cccc6ccccc56)c(Cl)cc24)OC[C@H]3Cn2cccn2)C[C@H]1C (atropisomer, axis not shown) [Example 306, (3R,10R)-3-((1H-pyrazol-1-yl)methyl)-7-((2S,5R)-4-acryloyl-2,5-dimethylpiperazin-1-yl)-9-chloro-10-(naphthalen-1-yl)-2,3-dihydro-5H-[1,4]oxazino[2,3,4-ij]quinazolin-5-one]
11 | 22.8 | C=CC(=O)N1C[C@H](C)N(c2nc(=O)n3c4c(c(-c5cccc6ccccc56)c(Cl)cc24)OC[C@@H]3CN2CCN(C)CC2)C[C@H]1C (atropisomer, axis not shown) [Example 308, (3S,10S)-7-((2S,5R)-4-acryloyl-2,5-dimethylpiperazin-1-yl)-9-chloro-3-((4-methylpiperazin-1-yl)methyl)-10-(naphthalen-1-yl)-2,3-dihydro-5H-[1,4]oxazino[2,3,4-ij]quinazolin-5-one]
12 | 94.4 | C=CC(=O)N1C[C@H](C)N(c2nc(=O)n3c4c(c(-c5cccc6ccccc56)c(Cl)cc24)OC[C@@H]3CN2CCN(C)CC2)C[C@H]1C (atropisomer, axis not shown) [Example 309, (3S,10R)-7-((2S,5R)-4-acryloyl-2,5-dimethylpiperazin-1-yl)-9-chloro-3-((4-methylpiperazin-1-yl)methyl)-10-(naphthalen-1-yl)-2,3-dihydro-5H-[1,4]oxazino[2,3,4-ij]quinazolin-5-one]
13 | 74.8 | C=CC(=O)N1C[C@H](C)N(c2nc(=O)n3c4c(c(-c5c(O)cccc5F)c(Cl)cc24)OC[C@@H]3CN2CCN(C)CC2)C[C@H]1C (atropisomer, axis not shown) [Example 314, (3S,10S)-7-((2S,5R)-4-acryloyl-2,5-dimethylpiperazin-1-yl)-9-chloro-10-(2-fluoro-6-hydroxyphenyl)-3-((4-methylpiperazin-1-yl)methyl)-2,3-dihydro-5H-[1,4]oxazino[2,3,4-ij]quinazolin-5-one]
14 | 72.8 | C=CC(=O)N1C[C@H](C)N(c2nc(=O)n3c4c(c(-c5cccc6ccccc56)c(Cl)cc24)OC[C@H]3Cn2ccnc2)C[C@H]1C (atropisomer, axis not shown) [Example 317, (3R,10R)-3-((1H-imidazol-1-yl)methyl)-7-((2S,5R)-4-acryloyl-2,5-dimethylpiperazin-1-yl)-9-chloro-10-(naphthalen-1-yl)-2,3-dihydro-5H-[1,4]oxazino[2,3,4-ij]quinazolin-5-one]
15 | 70.6 | C=CC(=O)N1C[C@H](C)N(c2nc(=O)n3c4c(c(-c5cccc6ccccc56)c(Cl)cc24)OC[C@H]3Cn2ccnc2)C[C@H]1C (atropisomer, axis not shown) [Example 318, (3R,10S)-3-((1H-imidazol-1-yl)methyl)-7-((2S,5R)-4-acryloyl-2,5-dimethylpiperazin-1-yl)-9-chloro-10-(naphthalen-1-yl)-2,3-dihydro-5H-[1,4]oxazino[2,3,4-ij]quinazolin-5-one]
16 | 0 | C=CC(=O)N1C[C@H](C)N(c2nc(=O)n3c4c(c(-c5c(C)ccc6[nH]ncc56)c(Cl)cc24)OC[C@H]3Cn2cccn2)C[C@H]1C (atropisomer, axis not shown) [Example 319, (3R,10S)-3-((1H-pyrazol-1-yl)methyl)-7-((2S,5R)-4-acryloyl-2,5-dimethylpiperazin-1-yl)-9-chloro-10-(5-methyl-1H-indazol-4-yl)-2,3-dihydro-5H-[1,4]oxazino[2,3,4-ij]quinazolin-5-one]
17 | 94.2 | C=CC(=O)N1C[C@H](C)N(c2nc(=O)n3c4c(c(-c5c(C)ccc6[nH]ncc56)c(Cl)cc24)OC[C@H]3Cn2cccn2)C[C@H]1C (atropisomer, axis not shown) [Example 320, (3R,10R)-3-((1H-pyrazol-1-yl)methyl)-7-((2S,5R)-4-acryloyl-2,5-dimethylpiperazin-1-yl)-9-chloro-10-(5-methyl-1H-indazol-4-yl)-2,3-dihydro-5H-[1,4]oxazino[2,3,4-ij]quinazolin-5-one]
18 | 78.5 | C=CC(=O)N1C[C@H](C)N(c2nc(=O)n3c4c(c(-c5cccc6ccccc56)c(Cl)cc24)OC[C@H]3CCCN2C[C@@H]3C[C@H]2CO3)C[C@H]1C (atropisomer, axis not shown) [Example 322, (3R,10S)-3-(3-((1S,4S)-2-oxa-5-azabicyclo[2.2.1]heptan-5-yl)propyl)-7-((2S,5R)-4-acryloyl-2,5-dimethylpiperazin-1-yl)-9-chloro-10-(naphthalen-1-yl)-2,3-dihydro-5H-[1,4]oxazino[2,3,4-ij]quinazolin-5-one]
19 | 0 | C=CC(=O)N1C[C@H](C)N(c2nc(=O)n3c4c(c(-c5c(C)ccc6[nH]ncc56)c(Cl)cc24)OC[C@H]3CCCN2C[C@@H]3C[C@H]2CO3)C[C@H]1C (atropisomer, axis not shown) [Example 325, (3R,10S)-3-(3-((1S,4S)-2-oxa-5-azabicyclo[2.2.1]heptan-5-yl)propyl)-7-((2S,5R)-4-acryloyl-2,5-dimethylpiperazin-1-yl)-9-chloro-10-(5-methyl-1H-indazol-4-yl)-2,3-dihydro-5H-[1,4]oxazino[2,3,4-ij]quinazolin-5-one]
20 | 94.2 | C=CC(=O)N1C[C@H](C)N(c2nc(=O)n3c4c(c(-c5c(C)ccc6[nH]ncc56)c(Cl)cc24)OC[C@H]3CCCN2C[C@@H]3C[C@H]2CO3)C[C@H]1C (atropisomer, axis not shown) [Example 326, (3R,10R)-3-(3-((1S,4S)-2-oxa-5-azabicyclo[2.2.1]heptan-5-yl)propyl)-7-((2S,5R)-4-acryloyl-2,5-dimethylpiperazin-1-yl)-9-chloro-10-(5-methyl-1H-indazol-4-yl)-2,3-dihydro-5H-[1,4]oxazino[2,3,4-ij]quinazolin-5-one]
